Experimental findings from patent US6015560A, “Antibody recognizing endothelial cell ligand for leukocyte CR3” (priority 1995, dated 2000) are described below.

Where only a bound is given, the exact number is not on record here.

Test [1] deals with human umbilical vein endothelial cells. In words: Adherence of neutrophils to cultured (TNF-stimulated) endothelial cells. To be noted: peptides 0.5 mM. Type of test: cell-based. How it is done: (§1) Human umbilical vein endothelial cells (HUVEC, first passage, Clonetics, San Diego, Calif.) were subcultured at confluence into Terasaki tissue culture wells. After 24 hours, confluent monolayers were used for adherence assays. Monolayers were stimulated with 10 ng/ml TNF alpha (Boehringer Mannheim, Indianapolis, Ind.) at 37° C. for four hours. 30 μl of human neutrophils (10^6 /ml) were labeled with fluorescein by the method of Lo et al. (1991), J. Exp. Med. 173 1493-1500, and preincubated for 15 minutes at 37° C. with 20 μl of peptides (0.5 mM in HAP) or HAP (phosphate buffered saline containing 0.5 mg/ml human serum albumin, 3 mM glucose, and 0.3 U/ml aprotinin) as a control buffer. For some experiments, endothelial cells were pretreated from 10 minutes with Factor X or antibodies against Factor X receptor (EPR-1; Altieri et al. (1990), J. Immunol. 145, 246-253) 12H1 and 9D4 (obtained from Dr. D. Altieri, Scripps Research Institute, Lajolla, Calif.) and then washed. Neutrophils were allowed to adhere to the monolayer for 15 mins. at 37° C. and unbound cells were removed by submersion of the plate in PBS buffer. The number of adherent neutrophils was counted in a 40× microscope field and expressed as a percentage of adherence in control wells with neutrophils treated with HAP buffer alone. The mAb IB4 against CD18 (50 μg/ml; Merck Inc., Rahway, N.J.) served as a positive control.
(§2) The procedures for determining the neutrophil adherence to cultured endothelial cells and the transendothelial migration of neutrophils were identical with those of Example 9. Control values were the same as those shown in Example 9.

Another test deals with leukocytes in CSF. The experiment in a line: Rabbit meningitis model: leukocyte migration into CSF. Type of test: in vivo. To be noted: for mean leukocyte concentration in CSF: peptides 10 μM i.v.; for reduction of CSF leukocytosis: peptides 10 μM, FHA 0.1 μM. How it is done: (§3) The rabbit model was performed according to an established protocol. Specific pathogen free, New Zealand white rabbits (2 kg; Hare Marland, Nutley, N.J.) were anesthetized with valium (2.5 mg/kg, subcutaneously, Hoffman-LaRoche, Nutley, N.J.), ketamine (35 mg/kg, intramuscularly, Aveco, Fort Dodge, Iowa) and xylazine (5 mg/kg, intramuscularly, Miles Laboratories, Shawnee, Kans.) and a helmet of dental acrylic was affixed to the calvarium. Twenty four hours later, the rabbits were anesthetized with ethyl carbamate (1.75 g/kg; Aldrich Chemical Co., Milwaukee, Wis.) and pentobarbital (15 mg/kg; Abbott Laboratories, Abbott Park, Ill.) and placed in a stereotaxic frame. A spinal needle was introduced into the cisterna magna and 300 μl of CSF was withdrawn. The animals were challenged intracisternally with 10^8 heat killed, unencapsulated pneumococcus strain R6 introduced in 200 μl of saline (time 0). One hour later, animals were treated with peptides dissolved in 1 ml of saline by intravenous injection into the right marginal ear vein. The concentration of FHA was 0.1 μM and that of the FHA Ia, Factor X II, and scrambled FHA II peptides was 10 μM. For the acetyl-FHA II, acetyl/amide-FHA II, dimer of FHA II and trimer of FHA II peptides, the concentration was 10^-3 μM. The concentration of FHA II is given in the results section. Samples of CSF were withdrawn at hourly intervals after pneumococcal inoculation and leukocyte density was measured using a cell counter (Coulter Electronics Inc., Hialeah, Fla.). CSF samples were centrifuged at 10,000×g for 5 minutes and the supernatant was stored at -70° C. until assayed for protein concentration using the bicinchoninic acid method (BCA Kit, Pierce Chemical Co., Rockford, Ill.) and for lactate concentration (Lactate Detection Kit, Sigma, St. Louis, Mo.). Statistically significant differences between treatments were determined by a one way analysis of variance test.
The anti-inflammatory effects of the administered peptides were assessed in the rabbit model for meningitis by the procedures described in Example 10. The animals received 1 ml of 1 uM peptide intravenously. In a slight departure from the protocol described in Example 10, samples of blood were drawn from the left marginal ear vein 30 minutes after the administration of the peptides to determine peripheral leukocyte concentrations.

The next test relates to neutrophils. The experiment in a line: Transendothelial migration of neutrophils. Type of test: cell-based, human. To be noted: peptides 0.01 mM. How it is done:
Transendothelial migration of neutrophils was studied based on a method described by Muller et al. (1992), J. Exp. Med. 176: 819-828. Briefly, human neutrophils suspended in ice-cold Hanks balanced salt solution (HBSS) containing Ca^++ and Mg^++ (Sigma) were fluoresceinated by adding 3.3 μl/ml 5-(and 6-)carboxyfluorescein diacetate, succinimidyl ester (CFSE, Molecular Probes Inc., Oreg.). After incubation for 30 mins. on ice, neutrophils were washed twice in cold HBSS with Ca^++ and Mg^++ and resuspended in cold Medium 199 (M199, Sigma) to a final concentration of 10^6 /ml. Human umbilical vein endothelial cells were subcultured at confluence into 96-well tissue culture plates (Becton Dickinson Labware, Lincoln Park, N.J.) that were coated with hydrated collagen gel (Vitrogen; Collagen Corporation, Palo Alto, Calif.) and fibronectin. Endothelial cells were stimulated with 10 ng/ml TNF-alpha for 4 hours and washed three times with warm M199. Neutrophils (10^6 /ml) were preincubated with 0.01 mM of peptides or with 1 μM of native FHA in M199 for 5 mins. on ice before they were added in 100 μl aliquots to the endothelial cells. For positive control, neutrophils were pre-incubated with 25 μg/ml anti-CD18 mAb IB4. For negative control, neutrophils were treated with 25 μg/ml mAb W6/32 against HLA class I antigen (Dako, Carpinteria, Calif.). The cells were incubated for 1 hour at 37° C., 5% CO2. To terminate transmigration, the supernatant fluid was aspirated and the wells were filled with warm 1 mM EGTA (Sigma) in HBSS without Ca and Mg. The plates were covered with plate sealers (Dynatech, Alexandria, Va.) and centrifuged in an inverted position at 250 g for 3 mins. at room temperature. To remove residual non-transmigrated neutrophils from the endothelial cells, monolayers were washed twice with 200 μl of warm Hanks solution without Ca and Mg. Fluorescence was quantitated using a fluorescence counter (Millipore Cytofluor™ 2300). The percentage of transmigrated neutrophils was determined by comparing the amount of fluorescence of test wells with that measured in collagen- and fibronectin-coated wells without endothelial cells. […] Percent inhibition of transendothelial migration of neutrophils was calculated by comparing the number of transmigrated cells in wells containing neutrophils treated with peptide to neutrophils treated with M199 alone and arbitrarily set at 100% transendothelial migration (TEM).
as §2

In another test the test system is blood brain barrier. The experiment in a line: Rabbit meningitis model: CSF protein and lactate (blood brain barrier permeability). To be noted: 10 μM peptides, 0.1 μM FHA. Type of test: in vivo. How it is done: as §3
Loss of barrier function of the cerebral capillary endothelium during inflammation is reflected by an influx of serum proteins into the CSF. […] To examine if the peptides were able to ameliorate these measures of cerebral injury, CSF protein and lactate concentrations were measured hourly in peptide-treated and control animals (Table 10).
Leukocyte migration into the CSF in bacterial meningitis is associated with loss of barrier function of the cerebral capillary endothelium, resulting in influx of serum proteins into the CSF. To determine whether FHA peptides were able to prevent this leukocyte-dependent injury, protein concentrations in the CSF were measured throughout the course of inflammation in peptide-treated and control animals.

The subject of another test is Factor Xa. In words: Generation of Factor Xa by monocytes (THP-1 cells). Type of test: cell-based. Conditions: 0.5 mM; for reduction of Factor Xa production: 20 min. How it is done: Factor Xa generation was determined by a modification of the method of Miletich et al. (1978), J. Biol. Chem. 253: 6908-6916. THP-1 cells (ATCC; 3×10^7 /ml) resuspended in RPMI 1640 (Bio Whittaker, Walkersville, Md.) were incubated with 100 μM ADP (Sigma), 2.5 mM CaCl2, 1 or 5 μg/ml Factor X (Hematologic Technologies Inc.) and 0.5 mM peptides at room temperature. After 20 minutes, 100 μl of the reaction mixture was transferred to 37° C. and supplemented with 100 μl of bovine factor VII- and Factor X-deficient plasma (Sigma). Coagulation was initiated by adding 100 μl of 25 mM CaCl2 and the clotting time was determined. Factor Xa procoagulant activity (ng/ml) was calculated by means of a standard curve constructed by serial concentrations of Factor Xa (Hematologic Technologies Inc.) from 50 to 250 ng/ml.

The test system of a further test is endothelial cells. The experiment in a line: Cooperative inhibition of neutrophil adherence by peptide plus antibody. Type of test: cell-based, human. Conditions: for additive reduction of neutrophil adherence: together with IB4 (50 μg/ml). How it is done: as §1
The ability of FHA peptides and anti-CD18 or anti-Factor X receptor antibodies to interact cooperatively to inhibit neutrophil adherence to endothelial cells was assessed by measuring neutrophil adherence to endothelial cells in the presence of antibody as well as antibody plus peptide. Anti-CD18 mAb IB4 was added to leukocytes at 10 μg/ml 10 min before the assay. Anti-Factor X receptor mAb 12H1 (10 μl of ascites) or 9D4 (10 μg/ml) were added to the endothelial cell monolayers 10 min before the assay. The peptides were added at 5 μg/ml. The results are shown in Table 8 where the numerical values are in % of control binding.

The subject of the next test is C3bi. In words: Inhibition of binding of 12.1F9 to E-C3bi by peptides. Details: species or system human. To be noted: for block of binding of 12.1F9 to C3bi: e-c3bi on antibody-coated wells. The source says:
The antibody 12.1F9 maps to the region 1279-2011 of FHA. When the derived amino acid sequence of this region was compared to that of C3, a region of 11 amino acids with similar sequence was found between FHA residues 1408-1418 and C3 residues 1187-1197 (Table 14). […] However, the FHA-20-mer and the homologous C3-derived peptide blocked binding by up to 60%.

The mark [2] stands for this setting: peptide 5 μg/ml plus 9D4 10 μg/ml.
The mark [3] stands for this setting: peptide 5 μg/ml plus 12H1 10 μl of ascites.
[4] abbreviates: peptide 5 μg/ml plus IB4 10 μg/ml.

Consider “DEETVK [scrambled FHA II, reference compound]”, for which the “interference with neutrophil adherence (in words)” value (“interference” for short) in test [1] was “did not interfere with neutrophil binding”. For the same substance, in the test on leukocytes in CSF (7 hours), the “mean leukocyte concentration in CSF” value is on record as 6431±1380 /μl CSF. Further, in the test with neutrophils, the “% Inhibition of TEM” value stood at 4 ± 5%.

Turning to ETKEVDG [FHA II], the “protein influx into CSF and lactate generation (in words)” value in the test with blood brain barrier is “significantly reduced protein influx into the CSF and generation of lactate”. Further, the “Factor Xa generation (in words)” value in the test on Factor Xa is recorded as “did not interfere with the generation of Factor Xa procoagulant activity”. The “% of control binding” value in the test on endothelial cells (setting [2]) is listed as 45 ± 9 % of control binding; in the test on endothelial cells (setting [3]), 67 ± 13 % of control binding; in the test with endothelial cells (setting [4]), 11 ± 6 % of control binding; in the test with endothelial cells (peptide 5 μg/ml, no antibody) it was 40 ± 23 % of control binding. For the same substance, in the test on endothelial cells, the “additive reduction of neutrophil adherence” value is given as above 80±10%. For the same substance, the “anti-inflammatory effect (in words)” value in the test with leukocytes in CSF (10^-3 μM i.v.) is on record as “ineffective”. Further, the “mean leukocyte concentration in CSF” value in the test on leukocytes in CSF (7 hours) is reported as 2645±1412 /μl CSF. Besides, the “leukocyte density vs control (in words)” value in the test on leukocytes in CSF (7 hours, 10^-1 μM) was “statistically significantly different from control”. In addition, the “reduction of CSF leukocytosis” value with leukocytes in CSF was above 60%.

With GLIQGRSVKVD [FHA Ib], in the test with Factor Xa, the “reduction of Factor Xa production” value is 81%. Moreover, in the test on neutrophils, the “% Inhibition of TEM” value was 7 ± 10%.

Consider “GLYQAKRFKVG [Factor X I, reference compound]”, for which the “Factor Xa generation (in words)” value with Factor Xa is reported as “substantial reduction that did not reach statistical significance”.

For GRTRG [FHA III], the “reduction of Factor Xa production” value with Factor Xa is listed as 74%. Also, the “interference” value in test [1] was “less effective than the corresponding Factor X derived peptide”. Moreover, the “% Inhibition of TEM” value in the test with neutrophils is recorded as 5 ± 6%.

Regarding “GYDTKQEDG [Factor X II, reference compound]”, in the test on blood brain barrier, the “protein influx into CSF and lactate generation (in words)” value is “no significant reduction”. In the test on Factor Xa, the “reduction of Factor Xa production” value is listed as above 90%. For the same substance, in the test on leukocytes in CSF (7 hours), the “mean leukocyte concentration in CSF” value is 1622±521 /μl CSF. Further, the “reduction of CSF leukocytosis” value in the test with leukocytes in CSF is listed as above 60%.

Take “IDRSMKTRG [Factor X III, reference compound]”: in the test on Factor Xa, the “Factor Xa generation (in words)” value was “substantial reduction that did not reach statistical significance”. In the test with neutrophils, the “% Inhibition of TEM” value was 5 ± 7%.

On to LGYQAK [FHA Ia], for which the “protein influx into CSF and lactate generation (in words)” value with blood brain barrier is reported as “no significant reduction”. In addition, the “% of control binding” value is reported as 63 ± 17 % of control binding in the test with endothelial cells (setting [2]); 64 ± 12 % of control binding with endothelial cells (setting [3]); 20 ± 7 % of control binding in the test on endothelial cells (setting [4]); 63 ± 12 % of control binding in the test on endothelial cells (peptide 5 μg/ml, no antibody). In the test with endothelial cells, the “additive reduction of neutrophil adherence” value is above 80±10%. Besides, the “interference” value in test [1] is “significantly more active than the Factor X peptide I”. The “mean leukocyte concentration in CSF” value in the test with leukocytes in CSF (7 hours) is 1640±1210 /μl CSF. The “reduction of CSF leukocytosis” value with leukocytes in CSF is reported as above 60%.

Regarding VTVGRGDPHQG [FHA RGD], in the test with C3bi (peptides 50 μg/ml, normalized to a control value of 100), the Adherence index is on record as 85 ± 9.

In the case of YTVAIAGYALA [C3-pep 1187-1197], the “block of binding of 12.1F9 to C3bi” value in the test with C3bi is “up to 60%”.

Regarding “YTVSADAIALA (YTVAIAGYALA) [FHA 1408-1418]”, the “block of binding of 12.1F9 to C3bi” value in the test on C3bi is “up to 60%”.
